The test system of the assay is C57BL/6 mice, intracerebral ependymoblastoma, median survival T/C. The experiment in a line: NCI In Vivo Anticancer Drug Screen. Data for tumor model Ependymoblastoma (intracerebral) in C57BL/6 mice. Conditions: endpoint: median survival time, higher = longer survival. Here is the method:
The antitumor activity of compounds was measured in mice bearing transplantable tumors. Survival or tumor size were measured and the results are expressed as the measurement made in the treated group (T) divided by the measurement made in the vehicle treated control group (C). The tumor model used in this assay is Ependymoblastoma (intracerebral) in C57BL/6 mice

[1] abbreviates: dose: 8.0 mg/kg/injection, schedule: Q01DX001 (ip), vehicle: Klucel (hydroxypropylcellulose) (HPC).
[2] abbreviates: dose: 16.0 mg/kg/injection, schedule: Q01DX001 (ip), vehicle: Klucel (hydroxypropylcellulose) (HPC).
Where [3] appears, read: dose: 16.0 mg/kg/injection, schedule: Q01DX005 (oral), vehicle: Klucel (hydroxypropylcellulose) (HPC).
Setting [4] is: dose: 32.0 mg/kg/injection, schedule: Q01DX001 (ip), vehicle: Klucel (hydroxypropylcellulose) (HPC).
Setting [5] is: dose: 32.0 mg/kg/injection, schedule: Q01DX005 (oral), vehicle: Klucel (hydroxypropylcellulose) (HPC).
Setting [6] is: dose: 64.0 mg/kg/injection, schedule: Q01DX001 (ip), vehicle: Klucel (hydroxypropylcellulose) (HPC).
[7] abbreviates: dose: 64.0 mg/kg/injection, schedule: Q01DX001 (oral), vehicle: Klucel (hydroxypropylcellulose) (HPC).
Where [8] appears, read: dose: 128.0 mg/kg/injection, schedule: Q01DX001 (ip), vehicle: Klucel (hydroxypropylcellulose) (HPC).
Setting [9] is: dose: 128.0 mg/kg/injection, schedule: Q01DX001 (oral), vehicle: Klucel (hydroxypropylcellulose) (HPC).
The mark [10] stands for this setting: dose: 256.0 mg/kg/injection, schedule: Q01DX001 (oral), vehicle: Klucel (hydroxypropylcellulose) (HPC).
The mark [11] stands for this setting: dose: 512.0 mg/kg/injection, schedule: Q01DX001 (oral), vehicle: Klucel (hydroxypropylcellulose) (HPC).
The mark [12] stands for this setting: dose: 32.0 mg/kg/injection, schedule: Q01DX005 (ip), vehicle: Klucel (hydroxypropylcellulose) (HPC).
[13] abbreviates: dose: 8.0 mg/kg/injection, schedule: Q01DX005 (ip), vehicle: Klucel (hydroxypropylcellulose) (HPC).
Where [14] appears, read: dose: 16.0 mg/kg/injection, schedule: Q01DX005 (ip), vehicle: Klucel (hydroxypropylcellulose) (HPC).
The mark [15] stands for this setting: dose: 64.0 mg/kg/injection, schedule: Q01DX005 (ip), vehicle: Klucel (hydroxypropylcellulose) (HPC).
Where [16] appears, read: dose: 2.0 mg/kg/injection, schedule: Q01DX005 (ip), vehicle: saline with Tween-80.
[17] abbreviates: dose: 4.0 mg/kg/injection, schedule: Q01DX005 (ip), vehicle: saline with Tween-80.
The mark [18] stands for this setting: dose: 12.0 mg/kg/injection, schedule: Q01DX005 (ip), vehicle: saline.

The structures appear in SMILES notation. Values joined by “and” are separate entries in the source; they are usually repeats but may differ in a detail not shown here. Equal entries are not always repeated. Inconclusive results and toxic doses are left out.

On to `O=NN(CCCl)C(=O)NC1CCCCC1`, for which the T/C under setting [1] was 106 % of control; the T/C (dose: 8.0 mg/kg/injection, schedule: Q01DX005 (oral), vehicle: Klucel (hydroxypropylcellulose) (HPC)) was 155 % of control; the T/C under setting [2] was 105 % of control; the T/C (dose: 16.0 mg/kg/injection, schedule: Q01DX001 (oral), vehicle: Klucel (hydroxypropylcellulose) (HPC)) is 111 % of control; the T/C under setting [3] was 311 % of control; the T/C under setting [4] was 98 % of control and 111 % of control. Further, the T/C reads like this: (dose: 32.0 mg/kg/injection, schedule: Q01DX001 (oral), vehicle: Klucel (hydroxypropylcellulose) (HPC)) 113 % of control; under setting [5], 310 % of control; under setting [6], 104 % of control and 106 % of control; under setting [7], 113 % of control; under setting [8], 95 % of control; under setting [9], 100 % of control. Further, the T/C reads like this: (dose: 256.0 mg/kg/injection, schedule: Q01DX001 (ip), vehicle: Klucel (hydroxypropylcellulose) (HPC)) 108 % of control; under setting [10], 104 % of control; (dose: 512.0 mg/kg/injection, schedule: Q01DX001 (ip), vehicle: Klucel (hydroxypropylcellulose) (HPC)) 95 % of control; under setting [11], 97 % of control.
In the case of `Cc1c[nH]c(=O)[nH]c1=O`, the T/C by setting is: under setting [12], 99 % of control; (dose: 64.0 mg/kg/injection, schedule: Q01DX005 (ip), vehicle: saline with Tween-80) 97 % of control; (dose: 128.0 mg/kg/injection, schedule: Q01DX005 (ip), vehicle: Klucel (hydroxypropylcellulose) (HPC)) 97 % of control; (dose: 128.0 mg/kg/injection, schedule: Q01DX005 (ip), vehicle: saline with Tween-80) 102 % of control; (dose: 256.0 mg/kg/injection, schedule: Q01DX005 (ip), vehicle: Klucel (hydroxypropylcellulose) (HPC)) 95 % of control; (dose: 256.0 mg/kg/injection, schedule: Q01DX005 (ip), vehicle: saline with Tween-80) 97 % of control. Also, the T/C reads like this: (dose: 512.0 mg/kg/injection, schedule: Q01DX005 (ip), vehicle: Klucel (hydroxypropylcellulose) (HPC)) 106 % of control; (dose: 512.0 mg/kg/injection, schedule: Q01DX005 (ip), vehicle: saline with Tween-80) 88 % of control; (dose: 1024.0 mg/kg/injection, schedule: Q01DX005 (ip), vehicle: saline with Tween-80) 107 % of control.
Take `ClC1C(Cl)C(Cl)C(Cl)C(Cl)C1Cl` (centres undefined): the T/C runs as follows: (dose: 45.0 mg/kg/injection, schedule: Q01DX005 (ip), vehicle: saline with Tween-80) 96 % of control and 87 % of control; (dose: 90.0 mg/kg/injection, schedule: Q01DX005 (ip), vehicle: saline with Tween-80) 94 % of control and 98 % of control; (dose: 180.0 mg/kg/injection, schedule: Q01DX005 (ip), vehicle: saline with Tween-80) 107 % of control; (dose: 360.0 mg/kg/injection, schedule: Q01DX005 (ip), vehicle: saline with Tween-80) 96 % of control and 103 % of control.
Take `[N-]=[N+]=CC(=O)CCC(N)C(=O)O` (centres undefined): the T/C (dose: 0.05 mg/kg/injection, schedule: Q01DX005 (ip), vehicle: saline) was 101 % of control; the T/C (dose: 0.1 mg/kg/injection, schedule: Q01DX005 (ip), vehicle: saline) is 115 % of control; the T/C (dose: 0.2 mg/kg/injection, schedule: Q01DX005 (ip), vehicle: saline) was 106 % of control; the T/C (dose: 0.8 mg/kg/injection, schedule: Q01DX005 (ip), vehicle: saline) is 121 % of control.
Regarding `COC1C(O)C(C)OC(OC2C(Oc3cccc4c(O)c5c(=O)oc6ccc(C)c7c(=O)oc(c34)c5c67)OC(C)C(O)C2O)C1O` (centres undefined), the T/C by setting is: (dose: 2.0 mg/kg/injection, schedule: Q01DX005 (ip), vehicle: Klucel (hydroxypropylcellulose) (HPC)) 105 % of control and 122 % of control and 124 % of control; (dose: 4.0 mg/kg/injection, schedule: Q01DX005 (ip), vehicle: Klucel (hydroxypropylcellulose) (HPC)) 95 % of control and 106 % of control; under setting [13], 90 % of control and 111 % of control and 122 % of control; under setting [14], 99 % of control and 113 % of control and 124 % of control; under setting [12], 97 % of control and 103 % of control; under setting [15], 99 % of control and 105 % of control and 107 % of control.
`O=NN(CCF)C(=O)NC1CCCCC1`: the T/C by setting is: (dose: 10.0 mg/kg/injection, schedule: Q01DX005 (ip), vehicle: suspension in saline) 123 % of control; (dose: 20.0 mg/kg/injection, schedule: Q01DX005 (ip), vehicle: suspension in saline) 262 % of control.
On to `Cc1[nH]c(=O)[nH]c(=O)c1N(CCF)CCCl`, for which the T/C reads like this: under setting [16], 96 % of control and 104 % of control; under setting [17], 97 % of control and 105 % of control; (dose: 4.0 mg/kg/injection, schedule: Q## X006 (ip), vehicle: Klucel (hydroxypropylcellulose) (HPC)) 111 % of control; (dose: 8.0 mg/kg/injection, schedule: Q01DX005 (ip), vehicle: saline with Tween-80) 97 % of control and 106 % of control; (dose: 8.0 mg/kg/injection, schedule: Q## X006 (ip), vehicle: Klucel (hydroxypropylcellulose) (HPC)) 106 % of control; (dose: 8.0 mg/kg/injection, schedule: Q#A X002 (ip), vehicle: Klucel (hydroxypropylcellulose) (HPC)) 101 % of control. The T/C is, setting by setting: under setting [2], 93 % of control and 102 % of control; (dose: 16.0 mg/kg/injection, schedule: Q01DX005 (ip), vehicle: saline with Tween-80) 108 % of control and 109 % of control; under setting [3], 111 % of control; (dose: 16.0 mg/kg/injection, schedule: Q#A X002 (ip), vehicle: Klucel (hydroxypropylcellulose) (HPC)) 99 % of control; under setting [4], 92 % of control and 101 % of control and 105 % of control; under setting [5], 94 % of control. In addition, the T/C runs as follows: (dose: 32.0 mg/kg/injection, schedule: Q#A X002 (ip), vehicle: Klucel (hydroxypropylcellulose) (HPC)) 111 % of control; under setting [6], 101 % of control and 114 % of control; under setting [7], 96 % of control and 107 % of control and 111 % of control; under setting [8], 87 % of control; under setting [9], 90 % of control and 111 % of control; under setting [10], 107 % of control and 86 % of control. Also, the T/C under setting [11] was 115 % of control.
For the compound `COc1cccc2c1C(=O)c1c(O)c3c(c(O)c1C2=O)C[C@@](O)(/C(C)=N/NC(=O)c1ccccc1)C[C@@H]3OC1CC(N)C(O)C(C)O1` (some centres undefined), the T/C is 108 % of control (dose: 1.0 mg/kg/injection, schedule: Q01DX009 (ip), vehicle: saline); 100 % of control under setting [16]; 99 % of control (dose: 2.0 mg/kg/injection, schedule: Q01DX009 (ip), vehicle: saline); 103 % of control under setting [17]; 113 % of control (dose: 4.0 mg/kg/injection, schedule: Q01DX009 (ip), vehicle: saline).
On to `CC(CN1CC(=O)NC(=O)C1)N1CC(=O)NC(=O)C1` (centres undefined), for which the T/C under setting [1] was 116 % of control; the T/C under setting [13] was 91 % of control and 112 % of control; the T/C under setting [2] is 87 % of control; the T/C under setting [14] is 110 % of control; the T/C under setting [4] was 89 % of control and 122 % of control; the T/C under setting [12] is 105 % of control. The T/C is, setting by setting: under setting [6], 98 % of control and 118 % of control; under setting [15], 90 % of control; under setting [8], 95 % of control.
Consider `CC[n+]1c(-c2ccccc2)c2cc(N)ccc2c2ccc(N)cc21`, for which, under setting [18], the T/C is 99 % of control.
For the compound `Cc1c2ccncc2c(C)c2c1[nH]c1ccccc12`, the T/C under setting [8] was 103 % of control.
For the compound `NC(CSC(c1ccccc1)(c1ccccc1)c1ccccc1)C(=O)O` (centres undefined), the T/C is 99 % of control under setting [12] and 109 % of control under setting [15].
`CC(=O)OC(C1CO1)C(OC(C)=O)C1CO1` (centres undefined): the T/C (dose: 5.0 mg/kg/injection, schedule: Q01DX005 (ip), vehicle: saline) was 301 % of control; the T/C (dose: 6.0 mg/kg/injection, schedule: Q01DX005 (ip), vehicle: saline) is 365 % of control; the T/C (dose: 7.0 mg/kg/injection, schedule: Q01DX005 (oral), vehicle: saline) was 253 % of control; the T/C (dose: 10.0 mg/kg/injection, schedule: Q01DX005 (ip), vehicle: saline) was 301 % of control; the T/C under setting [18] was 365 % of control; the T/C (dose: 14.0 mg/kg/injection, schedule: Q01DX005 (oral), vehicle: saline) is 365 % of control.
